Data published in ChEMBL document CHEMBL2375353, “Efficient induction of apoptosis in HeLa cells by a novel cationic porphycene photosensitizer” (Eur J Med Chem, 2013).
The source made the active and inactive calls. The rule behind the calls is not given here.

What was measured:
[1] = system: HeLa; test: Induction of apoptosis in human HeLa cells assessed as volume reduction at 0.5 uM incubated for 18 hrs prior to red light irradiation measured after 3 hrs by neutral red staining; format: functional, cell-based
[2] = system: HeLa; test: Induction of ROS generation in human HeLa cells assessed as cell survival at 0.5 uM incubated for 18 hrs prior to red light irradiation measured after 24 hrs by MTT assay; format: functional; conditions: light or radiation study, read-out: Activity
[3] = system: HeLa; test: Induction of ROS generation in human HeLa cells assessed as cell survival at 0.5 uM incubated for 18 hrs followed by NaN3 addition 2 hrs prior to red light irradiation measured after 24 hrs by MTT assay; format: functional; conditions: light or radiation study, read-out: Activity
[4] = system: HeLa; test: Induction of ROS generation in human HeLa cells assessed as singlet oxygen luminescence signal at 5 uM after 18 hrs; format: functional, cell-based
[5] = system: HeLa; test: Induction of apoptosis in human HeLa cells assessed as trypsin-mediated cell detachment at 0.5 to 0.75 uM incubated for 18 hrs prior to red light irradiation by hemocytometer; format: functional, cell-based
[6] = system: HeLa; test: Induction of apoptosis in human HeLa cells assessed as trypsin-mediated cell detachment incubated for 18 hrs prior to red light irradiation measured after 24 hrs by hemocytometer; format: functional, cell-based
[7] = system: HeLa; test: Induction of apoptosis in human HeLa cells incubated for 18 hrs prior to red light irradiation measured after 24 hrs by trypan blue exclusion assay; format: functional, cell-based
[8] = system: HeLa; test: Induction of apoptosis in human HeLa cells incubated for 18 hrs prior to red light irradiation measured after 3 hrs by trypan blue exclusion assay; format: functional, cell-based
[9] = system: HeLa; test: Phototoxicity against human HeLa cells at 0.5 uM incubated for 18 hrs prior to red light irradiation measured after 3 to 24 hrs by trypan blue exclusion assay; format: functional, cell-based
[10] = system: HeLa; test: Phototoxicity against human HeLa cells at 0.75 uM incubated for 18 hrs prior to red light irradiation measured after 3 to 24 hrs by trypan blue exclusion assay; format: functional, cell-based
[11] = system: HeLa; test: Phototoxicity against human HeLa cells at 0.75 uM incubated for 18 hrs prior to 3.6 J/cm'2 red light irradiation by MTT assay; format: functional, cell-based
[12] = system: HeLa; test: Phototoxicity against human HeLa cells assessed as cell viability at > 0.5 uM incubated for 18 hrs prior to 3.6 J/cm'2 red light irradiation by MTT assay; format: functional
[13] = system: HeLa; test: Phototoxicity against human HeLa cells at 1 uM incubated for 18 hrs prior to 2.4 J/cm'2 red light irradiation by MTT assay; format: functional
[14] = system: HeLa; test: Phototoxicity against human HeLa cells at 1 uM incubated for 18 hrs prior to 1.2 J/cm'2 red light irradiation by MTT assay; format: functional, cell-based
[15] = Cytotoxicity against human HeLa cells assessed as cell viability after 18 hrs by MTT assay in presence of 10 % FCS; format: cell-based; conditions: read-out: Activity
[16] = system: HeLa; test: Darktoxicity against human HeLa cells at 1 uM after 18 hrs by MTT assay; format: cell-based
[17] = Cytotoxicity against human HeLa cells assessed as cell viability after 18 hrs by MTT assay in presence of 1 % FCS; format: cell-based; conditions: read-out: Activity
[18] = system: HeLa; test: Darktoxicity against human HeLa cells at 0.75 uM after 18 hrs by MTT assay; format: cell-based
[19] = Darktoxicity against human HeLa cells assessed as cell survival at > 0.5 microM after 18 hrs by MTT assay; format: cell-based; conditions: read-out: Activity
[20] = system: HeLa; test: Drug uptake in human HeLa cells assessed as localization to lysosome at 0.5 uM after 18 hrs by prior to UV irradiation by fluorescence microscopy; format: ADME, cell-based
[21] = system: HeLa; test: Drug uptake in human HeLa cells at 0.75 uM after 18 hrs by fluorescence microscopy; format: ADME, cell-based
[22] = system: HeLa; test: Drug uptake in human HeLa cells assessed as perinuclear localization at 0.5 uM incubated for 18 hrs prior to UV irradiation by fluorescence microscopy; format: ADME, cell-based
[23] = system: HeLa; test: Ratio of drug uptake in human HeLa cells at 0.5 uM after 18 hrs to drug uptake in human HeLa cells at 0.5 uM after 1 hr; format: ADME, cell-based
[24] = system: HeLa; test: Drug uptake in human HeLa cells at 0.5 uM after 18 hrs by flow cytometry; format: ADME, cell-based
[25] = system: HeLa; test: Drug uptake in human HeLa cells at 0.5 uM by flow cytometry; format: ADME, cell-based; conditions: TDE = time-dependent effect
[26] = system: HeLa; test: Induction of ROS generation in human HeLa cells assessed as singlet oxygen luminescence signal at 5 uM after 18 hrs in presence of sodium azide; format: functional, cell-based
[27] = system: HeLa; test: Induction of apoptosis in human HeLa cells assessed as changes in microtubules and actin microfilament alteration at 0.75 to 0.5 uM after 18 hrs by immunostaining assay; format: cell-based
[28] = system: HeLa; test: Induction of apoptosis in human HeLa cells assessed as microtubule alteration at 0.75 to 0.5 uM after 18 hrs by […]; format: cell-based
[29] = system: HeLa; test: Induction of apoptosis in human HeLa cells assessed as cytochrome c relocation at 0.75 to 0.5 uM after 18 hrs by immunofluorescence method; format: cell-based
[30] = system: HeLa; test: Induction of apoptosis in human HeLa cells at 0.75 to 0.5 uM after 18 hrs by Hoechst-33258 staining; format: cell-based
[31] = system: HeLa; test: Induction of apoptosis in human HeLa cells at 0.75 to 0.5 uM after 18 hrs by neutral red staining; format: cell-based
[32] = system: HeLa; test: Induction of apoptosis in human HeLa cells assessed as relocalization of proapoptotic Bax protein within mitochondria at 0.75 to 0.5 uM after 18 hrs by indirect immunofluorescence; format: cell-based

With `COCc1ccc(C2=Cc3nc2ccc2[nH]c(cc2-c2ccc(C[n+]4ccccc4)cc2)c2nc(ccc4[nH]c3cc4-c3ccc(C[n+]4ccccc4)cc3)C(c3ccc(C[n+]4ccccc4)cc3)=C2)cc1.[Br-].[Br-].[Br-]` the Activity [1] was “Active”, the viability at 0.5 µM [2] was 5.2% and the viability at 0.5 µM [3] was 72%. For the same compound, the Activity [4] was “Active”, the Activity [5] was “Active” and the Activity [6] was “Dose-dependent effect”. The Activity [7] was “Active”, the Activity [8] was “Active” and the Activity [9] was “Active”. For the same compound, the Activity [10] was “Active”, the Activity [11] was “Active” and the Activity [12] was under 10%. For the same compound, the Activity [13] was over 50%, the Activity [14] was “Active” and the viability at 18 h [15] was 100%. The Activity [16] was “Toxic”, the viability at 18 h [17] was 98.6% and the Activity [18] was “Toxic”. For the same compound, the viability at 18 h [19] was over 90%, the Drug uptake [20] was “Active” and the Drug uptake [21] was “Active”. For the same compound, the Drug uptake [22] was “Active”, the Ratio [23] was 3 and the Drug uptake [24] was “Active”. For the same compound, the Drug uptake [25] was “tde”, the Activity [26] was “inactive” and the Activity [27] was “Non-toxic”. For the same compound, the Activity [28] was “Non-toxic”, the Activity [29] was “Non-toxic” and the Activity [30] was “Non-toxic”. For the same compound, the Activity [31] was “Non-toxic” and the Activity [32] was “Non-toxic”.
